Measurements from patent US12152030B2 (NOVOSTAR PHARMACEUTICALS, LTD., priority 2019, dated 2024).
pIC50: −log10 of the molar value.

What was measured:
[1] = system: PD-1; experiment: Expression of immune checkpoint PD-1 on cell surface of PHA-activated PBMC (flow cytometry); assay type: cell-based, human; settings: 5 μg/ml PHA, 0.01-10 μM, 48 hours
Method: (§1) Gradient centrifugation was used to extract PBMC cells from peripheral blood of healthy people. The PBMC cells were activated with 5 μg/ml PHA (Sigma), and treated with different concentrations of compounds (0, 0.01, 0.1, 1, 3, 10 μM). After 48 hours, the cells and culture supernatants were collected, respectively. Flow cytometry was used to detect the expression of immune checkpoints, PD-1, Tim-3 and Lag-3 on cell surface, and to detect the secretion level of various cytokines (IL-6, IL-10 and TNF-α) in the cell culture supernatants.

[2] = system: TNF-α; experiment: Secretion level of TNF-α in PHA-activated PBMC culture supernatants; assay type: cell-based, human; settings: 5 μg/ml PHA, 0.01-10 μM, 48 hours
Method: as §1

[3] = system: IL-6; experiment: Secretion level of IL-6 in PHA-activated PBMC culture supernatants; assay type: cell-based, human; settings: 5 μg/ml PHA, 0.01-10 μM, 48 hours
Method: as §1

[4] = molecular target: MNK2 (Homo sapiens, UniProt Q9HBH9); experiment: MNK biological enzyme assay (HTRF kinase assay), MNK2; assay type: biochemical; parameters: purchased ThermoFisher PV5607; settings: 1 ng/μl MNK2, 1 μM STK1 peptide, 100 μM ATP
MNK2, sequence (Q9HBH9 whole entry): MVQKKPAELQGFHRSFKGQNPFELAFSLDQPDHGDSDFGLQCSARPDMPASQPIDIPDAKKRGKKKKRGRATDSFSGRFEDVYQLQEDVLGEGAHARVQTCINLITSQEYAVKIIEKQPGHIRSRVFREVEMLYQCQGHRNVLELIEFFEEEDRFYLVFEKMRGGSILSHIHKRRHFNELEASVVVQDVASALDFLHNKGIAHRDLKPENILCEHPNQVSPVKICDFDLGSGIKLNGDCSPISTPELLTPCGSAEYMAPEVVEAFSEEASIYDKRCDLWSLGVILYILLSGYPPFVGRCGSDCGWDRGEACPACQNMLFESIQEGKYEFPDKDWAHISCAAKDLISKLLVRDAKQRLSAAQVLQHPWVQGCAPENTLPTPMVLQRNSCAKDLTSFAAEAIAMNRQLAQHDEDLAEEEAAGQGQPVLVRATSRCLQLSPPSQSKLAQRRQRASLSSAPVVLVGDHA
Method: (§2) A HTRF kinase assay kit (Cisbio, catalog number 62ST1PEB) was used to determine the MNK inhibitory activity of the compounds. All kinase reactions were performed in the reaction buffer (provided in the kit). The final MNK1 reaction involved 3 ng/ul recombinant MNK1 (ThermoFisher, PV6023), 1 μM MNK substrate peptide STK1 (provided in the kit), 100 μM ATP, and different concentrations of the inhibitory compounds of interest. The final MNK2 reaction involved 1 ng/μl recombinant MNK2 (ThermoFisher, PV5607), 1 μM MNK substrate peptide STK1 (provided in the kit), 100 μM ATP, and different concentrations of the inhibitory compounds of interest. The final DMSO concentration in each of the reactions was 1%.
(§3) The kinase reaction was performed in a final volume of 10 μl in a 384-well white flat-bottomed polystyrene plate. The MNK1/2 enzyme was pre-incubated with the compound and substrate peptide for 5 minutes, and then ATP was added thereto. After addition of ATP, the kinase reaction was incubated at 25° C. for 120 minutes or 60 minutes. The reaction was subsequently terminated by adding 5 μl of EU3+ substrate antibody detection reagent and 5 μl of XL665 detection reagent, and incubating for another 60 minutes. The luminescent signal was detected with an EnVision microplate reader counter (Perkin Elmer), and the signal from 10-point dilution series of the compounds was used to calculate the compound concentration (IC50) required to achieve 50% inhibition of enzyme activity.
(§4) In this respect, IC50 values which are less than 0.01 μM were marked as “+++”, which are from 0.01 to 0.1 μM were marked as “++”, and which are greater than 0.1 and up to 10.0 μM were marked as “+”, and NA meant “not detected”.

[5] = system: Tim-3; experiment: Expression of immune checkpoint Tim-3 on cell surface of PHA-activated PBMC (flow cytometry); assay type: cell-based, human; settings: 5 μg/ml PHA, 0.01-10 μM, 48 hours
Method: as §1

[6] = system: IL-10; experiment: Secretion level of IL-10 in PHA-activated PBMC culture supernatants; assay type: cell-based, human; settings: 5 μg/ml PHA, 0.01-10 μM, 48 hours
Method: as §1

[7] = molecular target: MNK1 (Homo sapiens, UniProt Q9BUB5); experiment: MNK biological enzyme assay (HTRF kinase assay), MNK1; assay type: biochemical; parameters: purchased ThermoFisher PV6023; settings: 3 ng/ul MNK1, 1 μM STK1 peptide, 100 μM ATP
MNK1, sequence (Q9BUB5 whole entry): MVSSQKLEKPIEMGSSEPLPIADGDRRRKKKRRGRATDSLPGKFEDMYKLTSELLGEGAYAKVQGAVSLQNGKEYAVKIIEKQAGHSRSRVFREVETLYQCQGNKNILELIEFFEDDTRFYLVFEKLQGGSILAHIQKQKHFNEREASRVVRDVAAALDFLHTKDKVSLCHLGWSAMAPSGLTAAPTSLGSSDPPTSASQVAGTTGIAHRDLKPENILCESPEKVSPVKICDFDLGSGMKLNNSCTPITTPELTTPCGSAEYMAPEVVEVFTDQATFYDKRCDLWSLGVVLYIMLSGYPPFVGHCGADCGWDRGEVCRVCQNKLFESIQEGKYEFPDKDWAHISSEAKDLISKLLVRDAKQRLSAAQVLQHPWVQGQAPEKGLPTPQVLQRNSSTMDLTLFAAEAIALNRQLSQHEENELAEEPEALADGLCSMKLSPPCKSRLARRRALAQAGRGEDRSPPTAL
Method: as §2, §3, §4

[8] = system: Lag-3; experiment: Expression of immune checkpoint Lag-3 on cell surface of PHA-activated PBMC (flow cytometry); assay type: cell-based, human; settings: 5 μg/ml PHA, 0.01-10 μM, 48 hours
Method: as §1

[9] = Pharmacokinetic study in rats; assay type: in vivo; settings: male, SD, plasma, rat
Method: In the examples, rat pharmacokinetic tests were performed for compounds 2 and 26 to illustrate their pharmacokinetic properties in rats.
Formulation of Liquors of Compound 2: […]
Experimental Method for Pharmacokinetic Study in Rats
(§5) Six SD rats, male, weighing 180-220 g, fasting for 12 hours, were randomly divided into 2 groups, 3 in each group. The animals in group A were intragastrically administrated with the compound liquor at a dose of 10 mg/kg; the animals in group B were intravenously administrated with the compound liquor via tails at a dose of 3 mg/kg. Blank blood was harvested before administration; about 100 μL of venous blood was harvested at different time points after administration, placed in a test tube added with heparin and centrifuged, and about 50 μL of blood plasma was collected and stored at −20° C. for testing.
Formulation of Liquors of Compound 26: […]
Formulation of solution for intravenous administration: compound 26 was dissolved in a solution of 5% DMSO+10% Solutol HS15+85% (20% HP-(3-CD physiological saline).
Formulation of suspension for intragastric administration: compound 26 was dissolved in a solution of 5% DMSO+10% Solutol HS15+85% (20% HP-(3-CD physiological saline).
Administration dosage of compound 26: 1 mg/kg for intravenous injection, 3 mg/kg for intragastric administration.
as §5, with “of 3” for “of 10”, “of 1” for “of 3”

[10] = system: Phosphorylated eIF4E; experiment: Intracellular peIF4E signaling assay; assay type: cell-based; settings: 2 h; two hours incubation at 37° C.; read-out: peIF4E signaling cell assay IC50
Method: Phosphorylated eIF4E was determined using CisBio peIF4E assay kit (CisBio, catalog number 64EF4PEG). The cells were plated in a 96-well cell culture plate in a volume of 90 μL, and the number of cells per well was 5*10^4. The compounds (10×) were subjected to 3-fold serial dilution, added to the cell plate in a volume of 10 μL with the final DMSO concentration being 1%, and incubated at 37° C. for two hours. The cell plate was centrifuged at 300 g for 5 minutes, and the cell supernatant was carefully removed. The cell plate was immediately added with 50 μL of cell lysis buffer […] and incubated at 25° C. with shaking for at least 30 minutes. After homogenization by pipetting, 16 μL of cell lysate was transferred from the 96-well cell culture plate to a 384-well small-volume microwell plate. According to the kit instruction, an antibody mixture solution was prepared with a detection buffer, and was added in a volume of 4 μL to the 384-well small-volume microwell plate containing the cell lysate. The plate was covered with a plate sealer, incubated overnight at 25° C., and was read for fluorescence emission at two different wavelengths (665 nm and 615 nm) on the EnVision microplate reader counter. The emission ratio was imported into a GraphPadPrism software to fit the compound concentration (IC50) required for 50% inhibition of enzyme activity.
In this respect, IC50 values which are less than 0.05 μM were marked as “+++”, which are from 0.05 to 1.0 μM were marked as “++”, and which are greater than 1.0 and up to 100 μM were marked as “+”, and NA meant “not detected”.

pIC50 [4] | pIC50 [7] | AUC(0-inf) ([9]; iv, 1 mg/kg) [ng·h/mL] | AUC(0-t) ([9]; iv, 1 mg/kg) [ng·h/mL] | clearance ([9]; iv, 1 mg/kg) [mL/min/kg] | half-life ([9]; iv, 1 mg/kg) [h] | Vd ([9]; iv, i.v., 1 mg/kg, read-out: Vz) [L/kg] | bioavailability ([9]; oral, p.o. 3 mg/kg vs i.v. 1 mg/kg) [%] | AUC(0-inf) ([9]; po, 3 mg/kg) [ng·h/mL] | AUC(0-t) ([9]; po, 3 mg/kg) [ng·h/mL] | Cmax ([9]; po, 3 mg/kg) [ng/mL] | Tmax ([9]; po, 3 mg/kg) [h] | half-life ([9]; po, 3 mg/kg) [h] | pIC50 [10] | Compound | inhibition of PD-1 expression [1] | inhibition of secretion of TNF-α [2] | inhibition of secretion of IL-6 [3] | inhibition of Tim-3 expression [5] | inhibition of secretion of IL-10 [6] | inhibition of Lag-3 expression [8]
> 8.00 | > 8.00 | – | – | – | – | – | – | – | – | – | – | – | – | CC(=O)Nc1cc2c(cn1)Cc1c(C)c3n(c(=O)c1N2)C1(CCCCC1)NC3=O [Compound 21, 12(N-methyl-1,5-2,5,6,11-tetrahydro-1H-spiro[cyclohexane-1-imidazo[1,5-6]pyrido[3,4-b]naphthyridine1.6][8]′-yl)acetamide] | significantly inhibited | significantly inhibited | significantly inhibited | significantly inhibited | significantly inhibited | significantly inhibited
> 8.00 | > 8.00 | 632 | 619 | 27.2 | 3.73 | 4.14 | 21.7 | 391 | 402 | 45.2 | 1.75 | 6.97 | > 7.30 | Cc1c2c(c(=O)n3c1C(=O)NC31CCCCC1)Nc1cc(NC(=O)C3CC3)ncc1C2 [Compound 26] | significantly inhibited | significantly inhibited | significantly inhibited | significantly inhibited | significantly inhibited | significantly inhibited
> 8.00 | > 8.00 | – | – | – | – | – | – | – | – | – | – | – | > 7.30 | Cc1c2c(c(=O)n3c1C(=O)NC31CCCCC1)Nc1cc(NC(=O)C(C)C)ncc1C2 [Compound 24, N-(12methyl-1,5-dioxo-1,5,6,11-tetrahydro-2H-spiro[cyclohexane-1,3-imidazole[1,5:1,6]pyrido[3,4b][1,6]naphthyridine]-8-yl)isobutyramide] | – | – | – | – | – | –
